{"source": "paper PMC4008261", "about": "“Rewiring of regenerated axons by combining treadmill training with semaphorin3A inhibition” (Molecular Brain, 2014)", "key": {"[1]": {"tested_on": "Mediator release, TNF-alfa, PBML", "test": "Pharmacological profile: mediator release", "format": "cell-based", "excerpt": "(§1) Table 1 Pharmacological profile of SM-345431 (part 1) | column: IC50 (μm)"}, "[2]": {"tested_on": "Mediator release, IL-2", "test": "Pharmacological profile: mediator release", "format": "cell-based", "excerpt": "as §1"}, "[3]": {"tested_on": "Mediator release, IL-6", "test": "Pharmacological profile: mediator release", "format": "cell-based", "excerpt": "as §1"}, "[4]": {"tested_on": "Mediator release, IL-10", "test": "Pharmacological profile: mediator release", "format": "cell-based", "excerpt": "as §1"}, "[5]": {"tested_on": "Mediator release, IL-1beta", "test": "Pharmacological profile: mediator release", "format": "cell-based", "excerpt": "as §1"}, "[6]": {"tested_on": "Mediator release, IL-5", "test": "Pharmacological profile: mediator release", "format": "cell-based", "excerpt": "as §1"}, "[7]": {"tested_on": "Mediator release, IL-4", "test": "Pharmacological profile: mediator release", "format": "cell-based", "excerpt": "as §1"}, "[8]": {"tested_on": "Mediator release, IFN-gamma", "test": "Pharmacological profile: mediator release", "format": "cell-based", "excerpt": "as §1"}, "[9]": {"tested_on": "SCT adult rats", "test": "Lumbar spinal circuitry after SCT (c-Fos and synapsin-1 immunostaining)", "format": "in vivo, rat", "method": "Rats were randomly divided into the following three experimental groups: 1) untrained + placebo, 2) untrained + SM-345431 and 3) trained + SM-345431. SCT was performed, and SM-345431 or placebo was administered at the lesion site via the newly developed DDS, which is described in detail below. Starting 1 week post-injury, treadmill training commenced with a BSS. Kinematic tests were performed monthly for 3 months after SCT using a rodent robotic device (Rodent robot 3000, Robomedica Inc.) that primarily assessed the performance of plantar stepping on a treadmill. Treadmill training was continued throughout the experimental period.\nA total of 53 adult female Sprague-Dawley rats (200-250 g, 10-12 weeks old) were used in this study (3 rats died during the experimental period and were excluded from the statistical analysis). All procedures were approved by the experimental animal care committee of Keio University, School of Medicine and Murayama Medical Center (approval #12-8). All rats were anesthetized with an intraperitoneal injection of ketamine (100 mg/kg)/xylazine (10 mg/kg). The spinal cord at the level of the T10 lamina was exposed by T10 laminectomy, and the dorsal dura mater was opened. The exposed spinal cord was cut along the inner edge of the vertebra with a sharp micro-scissor. Two more cuts were made at the gap of the transected spinal cord by a scalpel to ensure total transection. SM-345431 or placebo was administered to the transected site via the newly developed DDS as described in detail below (Figure 1G-I). After these procedures, the back muscles and skin were closed. Rats were kept warm in an incubator (37°C) after surgery. To prevent dehydration in the rats, 10 ml of saline was subcutaneously injected daily until day 7. Ampicillin (0.4 g/kg) was also injected intramuscularly daily to prevent infection until day 7. The bladder was evacuated manually until autonomous emptying of the bladder was achieved. The re-transection procedure was performed at the same level as the primary SCT (15 rats total; 5 rats from each group). Kinematic data were recorded using similar procedures prior to re-transection surgery (on the same day) and on the day following re-transection surgery. For CST tracing, 10% BDA was injected as follows. Nine weeks after SM-345431 or placebo administration, BDA (10000 MW, Molecular Probes) was injected into six different sites of the sensorimotor cortices of the rats under general anesthesia (site 1: 2.0 mm lateral, 0 mm to bregma; site 2: 2.0 mm lateral, 2 mm posterior to bregma; site 3: 2.0 mm lateral, 4 mm posterior to bregma; site 4: 4 mm lateral, 0 mm to bregma; site 5: 4 mm lateral, 2 mm posterior to bregma and site 6: 4 mm lateral, 4 mm posterior to bregma). […]"}}, "data": [{"smiles": "CC(=O)c1cc2c(=O)c3c(C(=O)O)c(O)c(O)cc3oc2c(C(C)=O)c1-c1coc2cc(O)c(O)c(C(=O)O)c2c1=O", "note": "[SM-345431, Vinaxanthone]", "values": [{"measurement": "IC50", "setting": "[1]", "value": "> 10", "unit": "µM"}, {"measurement": "IC50", "setting": "[2]", "value": "> 10", "unit": "µM"}, {"measurement": "IC50", "setting": "[3]", "value": "> 10", "unit": "µM"}, {"measurement": "IC50", "setting": "[4]", "value": "> 10", "unit": "µM"}, {"measurement": "IC50", "setting": "[5]", "value": "> 10", "unit": "µM"}, {"measurement": "IC50", "setting": "[6]", "value": "> 10", "unit": "µM"}, {"measurement": "IC50", "setting": "[7]", "value": "> 10", "unit": "µM"}, {"measurement": "IC50", "setting": "[8]", "value": "> 10", "unit": "µM"}, {"measurement": "number of c-Fos + nuclei versus control SCI rats", "setting": "[9]; SM-345431 alone, L1-L5 levels, not statistically significant", "value": "tended to be lower"}, {"measurement": "synapsin-1 expression at the lumbar enlargement versus control SCT group", "setting": "[9]; SM-345431 alone, P > 0.05", "value": "No statistically significant difference"}, {"measurement": "number of c-Fos + nuclei versus control SCT rats", "setting": "[9]; SM-345431 combined with treadmill training, L4 and L5 levels, P < 0.01", "value": "statistically significant decrease"}, {"measurement": "synapsin-1 expression at the lumbar enlargement", "setting": "[9]; SM-345431 combined with treadmill training, P < 0.01 vs control SCT, P < 0.05 vs SM-345431 group", "value": "statistically significant increase"}]}]}
